Data set [1] has as its system subject diagnosed with Rett Syndrome. In words: Example 1: daily liquid formulation in a subject with Rett Syndrome, follow-up questionnaire. The format is in vivo, human. To be noted: 5 mL of 0.2 mg/mL liquid formulation daily, total daily dose 1 mg. The procedure:
A subject diagnosed with Rett Syndrome was daily administered 5 mL of a liquid formulation containing A2-73 at a concentration of 0.2 mg/mL, for a total daily dose of 1 mg of […]2-73.

The test system of data set [2] is female subjects diagnosed with Rett Syndrome. In words: Example 5: 7-week treatment of Rett Syndrome subjects, RSBQ and CGI-I. It is filed as in vivo, human. From the text:
One useful measure of improvement for one or more symptoms of a genetic neurodevelopmental disorder may be determined using a behavioral questionnaire that interrogates a primary caregiver of a subject at multiple time points during a course of treatment, regarding multiple behavioral indicators of the disorder. For example, a Rett Syndrome Behavior Questionnaire (RSBQ) may comprise multiple, e.g., at least five but optionally 10 or more, such as 12, 15, 20, 25, 30, 35, 40, 45 or 50 or more behavioral indicators which ask for a caregiver's observations of the subject regarding the frequency of specific episodes or occurrences of each indicator. […]
Another useful measurement for one or more symptoms of a genetic neurodevelopmental disorder is a Clinical Global Impression-Improvement scale (CGI-I). This scale measures the improvement or worsening of the subject's condition relative to a baseline state before administration of the dosage form comprising a therapeutically acceptable amount of ANAVEX2-73, as assessed by one or more healthcare professionals. […]
(§1) For efficacy, the following parameters were measured in the female subjects: Rett Syndrome Behavior Questionnaire (RSBQ), Clinical Global Impressions (CGI-I), hand behaviors (RSBQ), breathing problems (RSBQ), waking during sleep (RSBQ), and glutamate biomarker, and GABA biomarkers.
(§2) Evaluation of the efficacy was measured as a comparison from baseline (week 0), week 4, and to end of treatment (week 7). Blood plasma samples were analyzed at week 0 and at week 7 to measure the levels of glutamate and GABA biomarkers. […]

The subject of data set [3] is subject, diagnosed with Rett Syndrome. In words: Example 6: liquid formulation in a subject with Rett Syndrome. The following applies: 1 mL of liquid formulation (0.2 mg/mL). It is filed as in vivo, human. The procedure: A subject, diagnosed with Rett Syndrome is administered 1 mL of a liquid formulation (0.2 mg/mL).
The test system of a further data set is healthy male volunteers. To be noted: cited from earlier work.
Data set [4] relates to glutamate and GABA biomarkers. Kind of data set: Example 5: plasma glutamate and GABA biomarkers. The format is in vivo, human. To be noted: Week 0 vs. Week 7; Wilcoxon Z=−1.992, p (2-tailed)=0.046.
Source text: In one aspect, the method further comprises measuring, or having measured or obtained a baseline plasma glutamate and/or gamma aminobutyric acid (GABA) level in the subject prior to treatment with ANAVEX2-73 as described herein, and measuring or having measured or obtained at least a second plasma glutamate and/or gamma aminobutyric acid (GABA) level following a period of treatment with ANAVEX2-73 as described herein. Measurement of a plasma glutamate and/or gamma aminobutyric acid (GABA) level comprises withdrawing a whole blood sample from the subject, separating the blood plasma from remaining whole blood components such as by centrifuging the sample, isolating the blood plasma, and measuring the amount of glutamate and/or gamma aminobutyric acid (GABA) in the blood plasma using any one of several techniques known in the art. […]
as §1, §2

The format of data set [5] is physicochemical. The source says:
Dosage formulations used in the disclosed methods comprise a therapeutically effective amount of ANAVEX2-73, the crystalline HCl salt of tetrahydro-N,N-dimethyl-2,2-diphenyl-3-furanmethanamine, or tetrahydro-N,N-dimethyl-2,2-diphenyl-3-furanmethanamine hydrochloride (IUPAC name: 1-(2,2-diphenyloxolan-3-yl)-N,N-dimethylmethanamine hydrochloride). […] Thus ANAVEX2-73 (used herein to refer to the HCl salt or the free base) is highly amenable to incorporation in the dosage formulations disclosed herein. For example, ANAVEX2-73 as either the HCl salt or the free base has a relatively low molecular weight (<400 Da), and is thus well suited for transmucosal or transdermal delivery, or rapid oral delivery. ANAVEX2-73 has a pKa around 8-9, which also makes it well-suited for transmucosal delivery. Therapeutically effective doses of ANAVEX2-73 are well suited for various thin film formulations, including oral and transdermal thin film formulations.

The mark [6] stands for this setting: single oral dose, healthy male volunteers.

Consider `CN(C)CC1CCOC1(c1ccccc1)c1ccccc1.Cl` (centres unmarked) [ANAVEX2-73, tetrahydro-N,N-dimethyl-2,2-diphenyl-3-furanmethanamine hydrochloride], for which the “motor skills and cognition according to follow-up questionnaire” value in data set [1] is recorded as “improvement”. For the same compound, the “improvement in the RSBQ” value in data set [2] (all six subjects, week 0 to week 7, Wilcoxon Z=−2.207, p (2-tailed)=0.027) is given as “over 30%”. Also, the “RSBQ and CGI-I after 7 weeks” value in data set [2] (correlated, p=0.003) is “reduction”. For the same compound, the “parameters measured (FIG. 1, FIG. 2A-D, FIG. 3A-E)” value in data set [2] (orally administered liquid formulation, 7 weeks) is “vast improvement”. Further, in data set [3], the CGI-I index result was “improvement” and the “Rett Syndrome Behavior Questionnaire (RSBQ)” value was “improvement”. Also, the serious adverse events entry in the data set on healthy male volunteers (single ascending oral dose, 22 healthy male volunteers) was “No serious adverse events”. Further, in the data set with healthy male volunteers (setting [6]), the “maximum tolerable dose (MTD)” value is recorded as 55 mg and the “minimum intolerable dose (MID)” value is 60 mg. Further, the “levels of glutamate biomarker in plasma” value in data set [4] is listed as “decreased significantly”.

In the case of `CN(C)CC1CCOC1(c1ccccc1)c1ccccc1` (centres unmarked) [free base form of ANAVEX2-73, tetrahydro-N,N-dimethyl-2,2-diphenyl-3-furanmethanamine], the “solubility in organic solvents” value in data set [5] is on record as “soluble in almost all organic solvents”.

(Values after patent publication US12642784B2, “ANAVEX2-73 for the treatment of genetic neurodevelopmental disorders” (ANAVEX LIFE SCIENCES CORP., priority 2019, dated 2026).)
